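Five compound concentrations were applied to cells in 96-well plates for 48 hours; endpoints were derived by simple linear interpolation of the resulting dose-response curve. Abbreviation: GI50, concentration required for 50% inhibition of growth.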 The source made the active and inactive calls. No stated cut-off is given here; in the data, active = GI50 up to about 1.1 µM and inactive = higher.
Tests used:
Experiment in all cases: DTP human tumour cell line panel, 48 h
786-0 = tested on: 786-0
CAKI-1 = tested on: CAKI-1
DU-145 = tested on: DU-145
HCT-116 = tested on: HCT-116
HOP-92 = tested on: HOP-92
HT-29 = tested on: HT-29
Hs-578T = tested on: Hs-578T
KM12 = tested on: KM12
M14 = tested on: M14
MCF7 = tested on: MCF7
MDA-N = tested on: MDA-N
Malme-3M = tested on: Malme-3M
NCI-H226 = tested on: NCI-H226
NCI/ADR-RES = tested on: NCI/ADR-RES
RXF 393 = tested on: RXF 393
SF-268 = tested on: SF-268
SK-MEL-5 = tested on: SK-MEL-5
T47D = tested on: T47D
UACC-62 = tested on: UACC-62
UO-31 = tested on: UO-31

| SMILES | GI50 (786-0) | GI50 (CAKI-1) | GI50 (DU-145) | GI50 (HCT-116) | GI50 (HOP-92) | GI50 (HT-29) | GI50 (Hs-578T) | GI50 (KM12) | GI50 (M14) | GI50 (MCF7) | GI50 (MDA-N) | GI50 (Malme-3M) | GI50 (NCI-H226) | GI50 (NCI/ADR-RES) | GI50 (RXF 393) | GI50 (SF-268) | GI50 (SK-MEL-5) | GI50 (T47D) | GI50 (UACC-62) | GI50 (UO-31) |
| --- | --- | --- | --- | --- | --- | --- | --- | --- | --- | --- | --- | --- | --- | --- | --- | --- | --- | --- | --- | --- |
| CSc1ccc(C2C(Cl)C(=O)N2NC(=O)c2c(Cl)c(Cl)c(Cl)c(Cl)c2-c2nc3ccccc3[nH]2)cc1 (stereo not given) | 18.4 µM (inactive) | 14.9 µM (inactive) | 15.8 µM (inactive) | 15.8 µM (inactive) | 11.5 µM (inactive) | 33.3 µM (inactive) | 32.5 µM (inactive) | 16.8 µM (inactive) | 20.5 µM (inactive) | 19.3 µM (inactive) | 21.5 µM (inactive) | 19 µM (inactive) | 16.1 µM (inactive) | 29.9 µM (inactive) | 1.97 µM (inactive) | 19.1 µM (inactive) | 17.1 µM (inactive) | 4.28 µM (inactive) | 29.8 µM (inactive) | 3.93 µM (inactive) |
| CC(C)(C)c1cc(C2=NN(c3ccccc3)C(c3ccccc3)C2)cc(C(C)(C)C)c1O (stereo not given) | > 100 µM (inactive) | > 100 µM (inactive) | > 100 µM (inactive) | > 100 µM (inactive) | > 100 µM (inactive) | > 100 µM (inactive) | > 100 µM (inactive) | > 100 µM (inactive) | > 100 µM (inactive) | 93.5 µM (inactive) | > 100 µM (inactive) | > 100 µM (inactive) | > 100 µM (inactive) | > 100 µM (inactive) | > 100 µM (inactive) | > 100 µM (inactive) | > 100 µM (inactive) | 31.5 µM (inactive) | > 100 µM (inactive) | > 100 µM (inactive) |
| CC(C)N(CCCNc1c2ccccc2nc2cccc([N+](=O)[O-])c12)C(C)C | < 0.0179 µM (active) | < 0.0418 µM (active) | < 0.01 µM (active) | < 0.01 µM (active) | 0.014 µM (active) | < 0.01 µM (active) | < 0.0257 µM (active) | < 0.0188 µM (active) | 0.0125 µM (active) | 0.0114 µM (active) | 0.0131 µM (active) | < 0.0214 µM (active) | 0.0481 µM (active) | 0.986 µM (active) | 0.0153 µM (active) | < 0.0224 µM (active) | < 0.01 µM (active) | < 0.0269 µM (active) | 0.0358 µM (active) | < 0.0224 µM (active) |
| O=C(/C=C/c1ccsc1)c1cccs1 | 49.3 µM (inactive) | 27.3 µM (inactive) | > 100 µM (inactive) | 15.6 µM (inactive) | 29.4 µM (inactive) | 36.9 µM (inactive) | 40.3 µM (inactive) | 19.4 µM (inactive) | 22.8 µM (inactive) | 17 µM (inactive) | 35 µM (inactive) | 50 µM (inactive) | > 100 µM (inactive) | 20.7 µM (inactive) | 18.9 µM (inactive) | 28.2 µM (inactive) | 14.6 µM (inactive) | 20 µM (inactive) | 25.4 µM (inactive) | 18.5 µM (inactive) |

Source: ChEMBL document CHEMBL1201862, “PubChem BioAssay data set” (2004)
